Among the data in PubChem BioAssay (NCI) are TGI and GI50 values, retold here.

Among the test systems are 786-0 renal; CCRF-CEM leukemia; EKVX NSCLC; HCT-116 colon; IGROV1 ovarian; MDA-MB-435; NCI-H23 lung; NCI/ADR-RES ovarian; SK-MEL-2 melanoma; SN12C renal; U251 CNS.
Common to all, as to experiment: inhibition of tumour cell growth, NCI panel, 48 h

“And” between values parts separate entries of the source, which are not always exact repeats. Equal values may be shown once.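 How tested: cells in 96-well plates exposed to compound for 48 hours at five concentrations. Here, GI50 denotes the concentration required for 50% inhibition of growth. TGI denotes the concentration required for complete inhibition of growth.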

On to `O=C(O)c1cccc(OCCOc2cccc(C(=O)O)c2[N+](=O)[O-])c1[N+](=O)[O-]`, for which the TGI with 786-0 renal, in the experiment with CCRF-CEM leukemia, with EKVX NSCLC, in the experiment with HCT-116 colon, with IGROV1 ovarian and with MDA-MB-435 was more than 100 µM throughout. Further, the TGI with NCI-H23 lung, with NCI/ADR-RES ovarian, in the experiment on SK-MEL-2 melanoma, in the experiment with SN12C renal and with U251 CNS was more than 100 µM throughout.

For `c1ccc2cc(CNCCCCNCCCNCc3ccc4ccccc4c3)ccc2c1`, the TGI in the experiment with 786-0 renal is 0.323 µM; in the experiment on CCRF-CEM leukemia, more than 100 µM; with EKVX NSCLC, 3.05 µM; in the experiment on HCT-116 colon it was 0.318 µM; with IGROV1 ovarian, 1.69 µM; in the experiment on MDA-MB-435, 3.1 µM. In addition, the TGI in the experiment with NCI-H23 lung is 3.43 µM; with NCI/ADR-RES ovarian, 3.47 µM; in the experiment on SK-MEL-2 melanoma it was 4.16 µM; with SN12C renal, 0.879 µM; with U251 CNS it was 1.25 µM.

As for `COc1cc2c(cc1O)Cc1c-2[n+](C)cc2cc(OC)c(OC)cc12`, the TGI in the experiment with 786-0 renal was more than 44.7 µM; in the experiment on CCRF-CEM leukemia, more than 24.9 µM; in the experiment with EKVX NSCLC it was more than 100 µM; with HCT-116 colon, more than 100 µM; in the experiment with IGROV1 ovarian, more than 100 µM; in the experiment on MDA-MB-435, more than 100 µM. Moreover, the TGI was more than 100 µM with NCI-H23 lung; more than 100 µM with NCI/ADR-RES ovarian; more than 100 µM with SK-MEL-2 melanoma; more than 100 µM with SN12C renal; 21.5 µM in the experiment on U251 CNS.

Take `COc1ccc(NS(=O)c2c(C)cc(C)cc2C)cc1` (centres undefined): the TGI in the experiment with 786-0 renal, with CCRF-CEM leukemia, in the experiment on EKVX NSCLC, with HCT-116 colon, with IGROV1 ovarian and in the experiment on MDA-MB-435 was more than 100 µM in each case. The TGI in the experiment with NCI-H23 lung, in the experiment on NCI/ADR-RES ovarian, with SK-MEL-2 melanoma, with SN12C renal and with U251 CNS was more than 100 µM each time.

Take `Oc1c(Cl)c(Cl)c(O)c(CCNc2nccs2)c1Cl`: the TGI with 786-0 renal is 33.5 µM; in the experiment with CCRF-CEM leukemia, more than 100 µM; in the experiment with EKVX NSCLC, 41.1 µM; with HCT-116 colon, 23.6 µM; in the experiment with IGROV1 ovarian, 17.9 µM; with MDA-MB-435, 41.8 µM. The TGI in the experiment on NCI-H23 lung came to 37.9 µM; with NCI/ADR-RES ovarian it was 50.5 µM; with SK-MEL-2 melanoma, 48.4 µM; in the experiment with SN12C renal, 49.2 µM; in the experiment on U251 CNS, 66.1 µM.

As to `COC(=O)[C@H](COC(C)(C)C)NC(=O)N[C@H](C)c1ccccc1`, the TGI with 786-0 renal, in the experiment with CCRF-CEM leukemia, with EKVX NSCLC, in the experiment with HCT-116 colon, in the experiment on IGROV1 ovarian and in the experiment with MDA-MB-435 was more than 100 µM throughout. Besides, the TGI in the experiment on NCI-H23 lung, in the experiment on NCI/ADR-RES ovarian, in the experiment on SK-MEL-2 melanoma, in the experiment on SN12C renal and in the experiment on U251 CNS was more than 100 µM each time.

With `CN1CC=C(c2cccn2C)CC1`, the TGI in the experiment with 786-0 renal, in the experiment on CCRF-CEM leukemia, in the experiment with EKVX NSCLC, with HCT-116 colon, in the experiment on IGROV1 ovarian and in the experiment with MDA-MB-435 was more than 100 µM each time. Besides, the TGI with NCI-H23 lung, in the experiment with NCI/ADR-RES ovarian, in the experiment with SK-MEL-2 melanoma, in the experiment with SN12C renal and in the experiment on U251 CNS was more than 100 µM each time.

For `c1ccc2nn(C3CCCO3)nc2c1` (centres undefined), the TGI in the experiment on 786-0 renal, in the experiment on CCRF-CEM leukemia, in the experiment with EKVX NSCLC, in the experiment on HCT-116 colon, in the experiment with IGROV1 ovarian and with MDA-MB-435 was more than 100 µM throughout. The TGI with NCI-H23 lung, in the experiment with NCI/ADR-RES ovarian, in the experiment with SK-MEL-2 melanoma, in the experiment with SN12C renal and in the experiment on U251 CNS was more than 100 µM each time.

`O=C1CCCCC1C(O)(C(F)(F)F)C(F)(F)Cl` (centres undefined): the TGI in the experiment on 786-0 renal, in the experiment on CCRF-CEM leukemia, in the experiment with EKVX NSCLC, in the experiment on HCT-116 colon, with IGROV1 ovarian and in the experiment with MDA-MB-435 was more than 10 µM each time. For the same compound, the TGI in the experiment with NCI-H23 lung, in the experiment on NCI/ADR-RES ovarian, with SK-MEL-2 melanoma, in the experiment with SN12C renal and in the experiment on U251 CNS was more than 10 µM in each case.

Regarding `O=C(O)C1=CN(c2ccncc2)C(c2ccco2)=CC1c1ccccc1[N+](=O)[O-]` (centres undefined), the TGI is 4.15 µM in the experiment on 786-0 renal; more than 100 µM in the experiment on CCRF-CEM leukemia; 23.8 µM in the experiment on EKVX NSCLC; 3.66 µM in the experiment on HCT-116 colon; 5.98 µM with IGROV1 ovarian; more than 57.6 µM in the experiment with MDA-MB-435. Also, the TGI in the experiment on NCI-H23 lung was 29.1 µM; with NCI/ADR-RES ovarian, more than 69.8 µM; with SK-MEL-2 melanoma it was 34.3 µM; in the experiment on SN12C renal, 29.1 µM; in the experiment with U251 CNS, 24.2 µM.

Consider `CC1(C)SCc2nc3ccccc3n21`, for which the TGI in the experiment with 786-0 renal, in the experiment with CCRF-CEM leukemia, in the experiment with EKVX NSCLC, in the experiment on HCT-116 colon, with IGROV1 ovarian and with MDA-MB-435 was more than 100 µM in each case. For the same compound, the TGI in the experiment with NCI-H23 lung, with NCI/ADR-RES ovarian, with SK-MEL-2 melanoma, with SN12C renal and in the experiment on U251 CNS was more than 100 µM each time.

Turning to `c1ccc(-c2cc(-c3ccncc3)cc(-c3ccncc3)n2)cc1`, the TGI in the experiment on 786-0 renal, with CCRF-CEM leukemia, in the experiment on EKVX NSCLC, in the experiment on HCT-116 colon, in the experiment with IGROV1 ovarian and with MDA-MB-435 was more than 100 µM throughout. Also, the TGI in the experiment with NCI-H23 lung, in the experiment on NCI/ADR-RES ovarian, in the experiment on SK-MEL-2 melanoma, in the experiment with SN12C renal and in the experiment with U251 CNS was more than 100 µM throughout.

As for `Nc1nc(N)c2ncn(-c3ccccc3)c2n1`, the TGI in the experiment with 786-0 renal, in the experiment with CCRF-CEM leukemia, with EKVX NSCLC, with HCT-116 colon, in the experiment on IGROV1 ovarian and in the experiment on MDA-MB-435 was more than 100 µM in each case. Further, the TGI in the experiment on NCI-H23 lung, with NCI/ADR-RES ovarian, with SK-MEL-2 melanoma, with SN12C renal and in the experiment on U251 CNS was more than 100 µM in each case. Further, the GI50 in the experiment with EKVX NSCLC is 43.3 µM and 89.6 µM.

`CC(=O)N=c1ccc2nc(N)nn(O)c-2c1`: the TGI in the experiment on 786-0 renal, in the experiment on CCRF-CEM leukemia, with EKVX NSCLC, in the experiment with HCT-116 colon, in the experiment with IGROV1 ovarian and in the experiment on MDA-MB-435 was more than 100 µM each time. Besides, the TGI with NCI-H23 lung, in the experiment on NCI/ADR-RES ovarian, in the experiment with SK-MEL-2 melanoma, with SN12C renal and with U251 CNS was more than 100 µM in each case.

For the compound `COC(=O)[C@@H](OC(C)=O)[C@@H](OC(C)=O)c1nnc2ccc(Cl)nn12`, the TGI in the experiment with 786-0 renal, with CCRF-CEM leukemia, with EKVX NSCLC, in the experiment on HCT-116 colon, in the experiment on IGROV1 ovarian and in the experiment with MDA-MB-435 was more than 100 µM each time. In addition, the TGI in the experiment on NCI-H23 lung, in the experiment on NCI/ADR-RES ovarian, in the experiment with SK-MEL-2 melanoma, in the experiment with SN12C renal and in the experiment with U251 CNS was more than 100 µM in each case.

Consider `Cc1cccc2c1c(=O)c1c(O)cc3c(c1n2C)C=CC(C)(C)O3`, for which the TGI in the experiment with 786-0 renal, in the experiment on CCRF-CEM leukemia, in the experiment on EKVX NSCLC, in the experiment on HCT-116 colon, with IGROV1 ovarian and with MDA-MB-435 was more than 100 µM throughout. The TGI with NCI-H23 lung, in the experiment with NCI/ADR-RES ovarian, with SK-MEL-2 melanoma, in the experiment on SN12C renal and in the experiment on U251 CNS was more than 100 µM in each case.

For the compound `O=C(/C=C/c1ccc(O)c(O)c1)NC(COC(=O)/C=C/c1ccc(O)c(O)c1)C(=O)O` (centres undefined), the TGI with 786-0 renal, with CCRF-CEM leukemia, in the experiment on EKVX NSCLC, with HCT-116 colon, in the experiment on IGROV1 ovarian and in the experiment on MDA-MB-435 was more than 100 µM in each case. Further, the TGI in the experiment with NCI-H23 lung, with NCI/ADR-RES ovarian, in the experiment on SK-MEL-2 melanoma, in the experiment with SN12C renal and in the experiment on U251 CNS was more than 100 µM in each case.

Take `COc1ccccc1N1C(=O)CSC1c1cc(OC)c(OC)c(OC)c1` (centres undefined): the TGI is more than 100 µM in the experiment on 786-0 renal; 76.6 µM in the experiment with CCRF-CEM leukemia; more than 100 µM with EKVX NSCLC; more than 100 µM with HCT-116 colon; more than 100 µM with IGROV1 ovarian; 40 µM in the experiment on MDA-MB-435. Further, the TGI in the experiment with NCI-H23 lung, with NCI/ADR-RES ovarian, with SK-MEL-2 melanoma, in the experiment on SN12C renal and in the experiment with U251 CNS was more than 100 µM each time.
